We go through 10 compounds from ChEMBL document CHEMBL1156052, “Discovery of 1-[4-(3-chlorophenylamino)-1-methyl-1H-pyrrolo[3,2-c]pyridin-7-yl]-1-morpholin-4-ylmethanone (GSK554418A), a brain penetrant 5-azaindole CB2 agonist for the treatment of chronic pain” (J Med Chem, 2009).

SMILES strings stand for the structures. In brackets after ≈: the same amount, converted by molar mass. Activity calls are given as the source filed them. The rule behind the calls is not given here. Bounds are passed on as bounds.

In data set [1] the target is T1, Cannabinoid receptor 1 (Homo sapiens, UniProt P21554). Nature of the data set: Agonist activity at human recombinant cannabinoid CB1 receptor expressed in MMY23 Saccharomyces cerevisiae assessed as degradation of FDGlu to fluorescein after 24 hrs by spectrofluorimetry. Type of data set: functional.
The species named for the next data set is Homo sapiens. Description: Selectivity ratio of EC50 for human recombinant cannabinoid CB1 receptor to EC50 for human recombinant cannabinoid CB2 receptor.
The target of data set [2] is T2, Cannabinoid receptor 2 (Homo sapiens, UniProt P34972). Nature of the data set: Agonist activity at human recombinant cannabinoid CB2 receptor expressed in MMY23 Saccharomyces cerevisiae assessed as degradation of FDGlu to fluorescein after 24 hrs by spectrofluorimetry. Type of data set: functional.
Data set [3] concerns the target T1, Cannabinoid receptor 1. Nature of the data set: Agonist activity at human recombinant cannabinoid CB1 receptor expressed in MMY23 Saccharomyces cerevisiae assessed as degradation of FDGlu to fluorescein at 30 uM after 24 hrs by spectrofluorimetry. The class given is functional.
Data set [4] deals with T2, Cannabinoid receptor 2. Description: Agonist activity at human recombinant cannabinoid CB2 receptor expressed in MMY23 Saccharomyces cerevisiae assessed as degradation of FDGlu to fluorescein after 24 hrs by spectrofluorimetry relative to HU210. Type of data set: functional.
Data set [5] deals with T1, Cannabinoid receptor 1. Nature of the data set: Agonist activity at human recombinant cannabinoid CB1 receptor expressed in MMY23 Saccharomyces cerevisiae assessed as degradation of FDGlu to fluorescein after 24 hrs by spectrofluorimetry relative to HU210. Type of data set: functional.
A short description of data set [6]: Solubility in simulated intestinal fluid at pH 5. The class given is physicochemical.

T2 sequence (P34972 whole entry): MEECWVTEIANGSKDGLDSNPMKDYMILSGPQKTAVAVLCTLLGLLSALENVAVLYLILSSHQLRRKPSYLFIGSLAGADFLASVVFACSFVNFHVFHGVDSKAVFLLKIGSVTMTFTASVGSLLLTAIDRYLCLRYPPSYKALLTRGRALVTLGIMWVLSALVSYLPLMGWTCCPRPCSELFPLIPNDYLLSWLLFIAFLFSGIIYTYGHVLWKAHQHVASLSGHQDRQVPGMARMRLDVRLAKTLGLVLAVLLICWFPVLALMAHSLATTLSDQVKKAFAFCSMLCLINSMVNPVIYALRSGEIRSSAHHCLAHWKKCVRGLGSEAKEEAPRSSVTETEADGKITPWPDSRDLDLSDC
T1 sequence (P21554 whole entry): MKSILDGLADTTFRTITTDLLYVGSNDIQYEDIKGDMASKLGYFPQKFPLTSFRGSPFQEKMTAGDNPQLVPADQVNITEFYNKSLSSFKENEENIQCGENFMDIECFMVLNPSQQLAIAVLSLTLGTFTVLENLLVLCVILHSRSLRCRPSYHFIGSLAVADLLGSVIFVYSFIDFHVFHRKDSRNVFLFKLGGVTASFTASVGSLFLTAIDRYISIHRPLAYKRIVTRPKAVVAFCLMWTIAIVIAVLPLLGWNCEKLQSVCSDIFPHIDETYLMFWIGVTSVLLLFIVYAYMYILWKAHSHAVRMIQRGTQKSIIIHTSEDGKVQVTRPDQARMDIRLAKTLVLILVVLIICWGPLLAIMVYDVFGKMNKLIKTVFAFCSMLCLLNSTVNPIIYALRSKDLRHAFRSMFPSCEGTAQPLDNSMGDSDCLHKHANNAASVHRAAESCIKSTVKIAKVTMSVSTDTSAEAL

As a reminder, the EC50 is the concentration at which the effect is half-maximal. `CCCCCCC(C)(C)c1cc(O)c2c(c1)OC(C)(C)[C@@H]1CC=C(CO)C[C@@H]21`: the half-maximal effective concentration (EC50) on Cannabinoid receptor 1 [1] is 0.04 µM.
Turning to `Cc1c[nH]c2c(Nc3cccc(C(F)(F)F)c3)ncc(C(=O)N3CCOCC3)c12`, the Ratio EC50 in the data set filed under Homo sapiens was above 100. The EC50 on Cannabinoid receptor 1 [1] was above 30 µM; on Cannabinoid receptor 2 [2] it was 0.015 µM. Further, at Cannabinoid receptor 1 [3], the result was inactive. Moreover, the Efficacy on Cannabinoid receptor 2 [4] turned out to be 86%.
As to `Cc1c[nH]c2c(Nc3ccccc3Cl)ncc(C(=O)N3CCOCC3)c12`, the Ratio EC50 in the data set listed under Homo sapiens was above 100. The figures for the EC50 on Cannabinoid receptor 1 [1] and at Cannabinoid receptor 2 [2] were 15.8 µM and 0.123 µM, respectively. For the same compound, the Efficacy stood at 56% on Cannabinoid receptor 1 [5] and 82% on Cannabinoid receptor 2 [4]. In addition, the result at Cannabinoid receptor 1 [3] was inactive.
Turning to `Cc1c[nH]c2c(Nc3cccc(Cl)c3)ncc(C(=O)NC3CCOCC3)c12`, the EC50 at Cannabinoid receptor 1 [1] was above 30 µM; on Cannabinoid receptor 2 [2], 1.7 µM. Moreover, on Cannabinoid receptor 2 [4], the Efficacy came to 79%.
For `COc1ccccc1Nc1ncc(C(=O)N2CCOCC2)c2c(C)c[nH]c12`, the Ratio EC50 in the data set filed under Homo sapiens is above 100. The EC50 on Cannabinoid receptor 1 [1] was above 10 µM; on Cannabinoid receptor 2 [2], 0.349 µM. Also, the outcome at Cannabinoid receptor 1 [3] was inactive. Moreover, the Efficacy at Cannabinoid receptor 2 [4] worked out at 72%.
A word on the solubility: it is the dissolved amount per volume that the medium holds. Higher therefore signals a readily soluble substance. Take `O=C(NCC1CCOCC1)c1cnc(Nc2ccc(Cl)cc2Cl)nc1C(F)(F)F` [GW842166X]: at Cannabinoid receptor 1 [1], the EC50 is above 30 µM. Moreover, the solubility in data set [6] is 10 µg/mL (≈ 22.3 µM).
As to `Cc1c[nH]c2c(NC3CCOCC3)ncc(C(=O)N3CCOCC3)c12`, the results for the EC50 at Cannabinoid receptor 1 [1] and at Cannabinoid receptor 2 [2] were above 30 µM and 3.3 µM, respectively. The Efficacy at Cannabinoid receptor 2 [4] turned out to be 84%.
With `Cc1c[nH]c2c(Nc3cccc(Cl)c3)ncc(C(=O)NCC3CCOCC3)c12`, the values for the EC50 at Cannabinoid receptor 1 [1] and on Cannabinoid receptor 2 [2] were above 30 µM and 0.265 µM, respectively. For the same compound, the Efficacy at Cannabinoid receptor 2 [4] came to 95%.
For the compound `Cc1c[nH]c2c(Nc3cccc(Br)c3)ncc(C(=O)N3CCOCC3)c12`, the 50% effective concentration (EC50) was 6.3 µM at Cannabinoid receptor 1 [1] and 0.01 µM on Cannabinoid receptor 2 [2]. In addition, the Efficacy came out at 43% at Cannabinoid receptor 1 [5] and 78% on Cannabinoid receptor 2 [4].
For `CCC(CC)Nc1ncc(C(=O)N2CCOCC2)c2c(C)c[nH]c12`, the EC50 at Cannabinoid receptor 1 [1] is above 30 µM; on Cannabinoid receptor 2 [2] it was 4.67 µM. In addition, the Efficacy on Cannabinoid receptor 2 [4] is 59%.
